Results as given in patent US20220395608A1, “WATER SOLUBLE BIOADHESIVES” (THE GOVERNING COUNCIL OF THE UNIVERSITY OF TORONTO, priority 2019, published 2022).

Experiments:
[1] = system: A10 smooth muscle cell line; assay: WST-1 cell viability assay, direct contact, ISO 10993-5; format: cell-based; conditions: A10 cells, relative to DMEM negative control, mean ± SD, n = 4
Procedure: (§1) Cytotoxicity Assays: In vitro cytotoxicity of adhesive formulations was assessed by direct contact with cells, according to ISO 10993-5 [35], which describes test methods to evaluate in vitro cytotoxicity of medical devices and, therefore, determine the in vitro biological response of mammalian cells using appropriate parameters. DNA mass quantification and Water-soluble tetrazolium (WST-1) assays were used to evaluate the toxicity of the formulations to a cell line. Negative and positive controls consisted of growth media with untreated cells and 5% Dimethyl sulfoxide (DMSO), respectively.
(§2) Cell Culture and Sample Preparation: A10 smooth muscle cell line (ATCC, CRL-1476™) were cultured in Dulbecco's modified Eagle's medium (DMEM), supplemented with 100 U mL^−1 penicillin/100 μg of streptomycin and 10% fetal bovine serum in a humidified atmosphere at 37° C. with 5% C02. The medium was changed every other day, allowing the cells to grow and reach confluency. When the cells reached 80-90% confluence, they were passaged following treatment with 0.25% trypsin-EDTA solution. This procedure was repeated until the cells entered their standard cellular cycle. Samples of adhesives were pre-conditioned in an incubator with DMEM for 24 h. Then, cells were seeded onto the samples, to which 200 μL of A10 suspension (approximately 25,000 cells/mL) was added. The seeded specimens were confined in the wells of a 96-well plate for 24 h, 72 h and 7 days.
WST-1 assay: For the WST assay, after removing media and rinsing with 1× with PBS, 200 μL of DMEM was added to each well. […] The absorbance was read using a multi-mode reader (BioTek Cytation 3, Biotek, Winooski, Vt., USA) at 450 nm, with a reference wavelength of 650 nm. […]
(§3) Statistical analysis: Data was analyzed using the software PASW Statistics 21.0 (SPSS Inc, Chicago, Ill., USA). Two-Way analysis of variance (ANOVA) and Tukey's multiple comparison post-hoc tests will be used to determine a statistical significance between the groups for the DNA mass quantification and WST-1 assays. […]

[2] = system: A10 smooth muscle cell line; assay: DNA mass quantification (Hoechst 33258) cytotoxicity assay, direct contact, ISO 10993-5; format: cell-based; conditions: A10 cells, relative to DMEM negative control, mean ± SD, n = 4
Procedure: as §1
as §2, with “Then, cells were seeded onto the samples, to which 200 μL of A10 suspension (approximately 25,000 cells/mL) was added. The seeded specimens were confined in the wells of a 96-well plate for 24 h, 72 h and 7 days.” left out
DNA mass quantification: At each time-point, cells were lysed with ice-cold lysis buffer (0.05% Triton X-100, 50 mM EDTA in PBS) for 1 h and tested for DNA assay as previously described. […] Then, 10 μL of cell lysate was added to the dye and read against a calf thymus DNA standard in a fluorescence microplate reader (BioTek Cytation 3, Biotek, Winooski, Vt., USA), with the excitation wavelength set at 360 nm and the emission wavelength observed at 460 nm.
as §3

C[S+](C)[O-] [5% DMSO, Dimethyl sulfoxide]
Relative Cell viability (%) ([1]; WST-1, 24 h): 18.4 ± 0.9% | Relative Cell viability (%) ([1]; WST-1, 72 h): 4.4 ± 1.1% | Relative Cell viability (%) ([1]; WST-1, 7 d): 1.0 ± 0.5% | Relative DNA mass (%) ([2]; 24 h): 15.3 ± 5.3% | Relative DNA mass (%) ([2]; 72 h): 1.3 ± 1.9% | Relative DNA mass (%) ([2]; 7 d): 1.4 ± 1.6%
